Test results as given in ChEMBL document CHEMBL1145498, “A systematic interaction map of validated kinase inhibitors with Ser/Thr kinases” (Proc Natl Acad Sci U S A, 2007).

Columns and labels:
[1] = target: Calcium/calmodulin-dependent protein kinase type II subunit beta (Homo sapiens) (UniProt Q13554)
[2] = target: T1, Calcium/calmodulin-dependent protein kinase type IV (Homo sapiens) (UniProt Q16566)
T1 sequence (whole entry): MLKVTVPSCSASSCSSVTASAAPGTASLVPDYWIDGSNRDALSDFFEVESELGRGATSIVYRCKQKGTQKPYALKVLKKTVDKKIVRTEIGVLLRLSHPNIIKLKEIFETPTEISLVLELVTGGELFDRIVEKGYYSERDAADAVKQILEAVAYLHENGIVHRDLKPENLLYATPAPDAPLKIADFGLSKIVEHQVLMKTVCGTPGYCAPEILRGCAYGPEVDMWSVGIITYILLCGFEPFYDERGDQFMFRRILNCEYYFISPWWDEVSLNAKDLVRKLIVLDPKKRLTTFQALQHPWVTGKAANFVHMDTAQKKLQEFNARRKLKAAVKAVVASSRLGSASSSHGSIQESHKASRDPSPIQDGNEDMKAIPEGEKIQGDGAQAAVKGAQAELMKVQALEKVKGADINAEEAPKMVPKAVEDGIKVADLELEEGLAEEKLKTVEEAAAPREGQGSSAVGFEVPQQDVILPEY

[3] = target: Cyclin-dependent kinase 6 (Homo sapiens) (UniProt Q00534)
[4] = target: Cyclin-dependent kinase-like 1 (Homo sapiens) (UniProt Q00532)
Chain of Cyclin-dependent kinase-like 1 (Homo sapiens) (Q00532 whole entry): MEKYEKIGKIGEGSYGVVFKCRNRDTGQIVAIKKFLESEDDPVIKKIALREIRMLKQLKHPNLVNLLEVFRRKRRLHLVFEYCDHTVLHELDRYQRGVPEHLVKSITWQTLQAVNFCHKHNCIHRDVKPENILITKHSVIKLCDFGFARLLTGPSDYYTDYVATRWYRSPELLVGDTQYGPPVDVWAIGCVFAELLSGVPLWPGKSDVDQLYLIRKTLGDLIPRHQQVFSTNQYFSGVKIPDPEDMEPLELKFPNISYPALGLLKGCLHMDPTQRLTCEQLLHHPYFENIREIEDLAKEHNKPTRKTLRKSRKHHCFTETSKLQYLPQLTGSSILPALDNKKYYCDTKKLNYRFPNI

[5] = target: Dual specificity protein kinase CLK1 (Homo sapiens) (UniProt P49759)
Chain of Dual specificity protein kinase CLK1 (Homo sapiens) (P49759 whole entry, looked up): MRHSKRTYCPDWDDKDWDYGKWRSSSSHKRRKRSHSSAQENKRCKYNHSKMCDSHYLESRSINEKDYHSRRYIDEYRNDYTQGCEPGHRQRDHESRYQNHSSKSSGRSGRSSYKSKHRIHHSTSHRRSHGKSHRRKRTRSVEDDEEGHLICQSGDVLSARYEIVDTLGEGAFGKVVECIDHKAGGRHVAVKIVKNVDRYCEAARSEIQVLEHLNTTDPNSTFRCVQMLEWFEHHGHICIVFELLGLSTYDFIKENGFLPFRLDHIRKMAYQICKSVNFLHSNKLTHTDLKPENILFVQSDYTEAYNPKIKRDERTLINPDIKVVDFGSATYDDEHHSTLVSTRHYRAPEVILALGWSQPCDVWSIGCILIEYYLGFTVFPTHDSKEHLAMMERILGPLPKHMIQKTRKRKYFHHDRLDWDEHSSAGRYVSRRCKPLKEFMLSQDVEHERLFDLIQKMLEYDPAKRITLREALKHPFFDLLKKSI

[6] = target: Dual specificity protein kinase CLK3 (Homo sapiens) (UniProt P49761)
[7] = target: Casein kinase I isoform gamma-3 (Homo sapiens) (UniProt Q9Y6M4)
Chain of Casein kinase I isoform gamma-3 (Homo sapiens) (Q9Y6M4 whole entry, looked up, canonical isoform): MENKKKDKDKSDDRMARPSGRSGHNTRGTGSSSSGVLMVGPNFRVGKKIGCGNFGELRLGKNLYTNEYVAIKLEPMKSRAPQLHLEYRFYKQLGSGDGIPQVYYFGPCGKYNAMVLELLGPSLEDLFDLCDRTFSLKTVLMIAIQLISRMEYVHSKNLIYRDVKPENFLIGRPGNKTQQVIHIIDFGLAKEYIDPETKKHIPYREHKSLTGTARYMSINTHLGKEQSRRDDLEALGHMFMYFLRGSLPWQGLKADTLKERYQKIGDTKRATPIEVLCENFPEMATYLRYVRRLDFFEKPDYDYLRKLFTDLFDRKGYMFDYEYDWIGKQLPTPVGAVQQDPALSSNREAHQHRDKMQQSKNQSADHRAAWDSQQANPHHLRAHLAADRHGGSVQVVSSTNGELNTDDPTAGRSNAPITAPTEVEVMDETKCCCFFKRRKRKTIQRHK

[8] = target: Mitogen-activated protein kinase 11 (Homo sapiens, UniProt Q15759)
Chain of Mitogen-activated protein kinase 11 (Q15759 whole entry): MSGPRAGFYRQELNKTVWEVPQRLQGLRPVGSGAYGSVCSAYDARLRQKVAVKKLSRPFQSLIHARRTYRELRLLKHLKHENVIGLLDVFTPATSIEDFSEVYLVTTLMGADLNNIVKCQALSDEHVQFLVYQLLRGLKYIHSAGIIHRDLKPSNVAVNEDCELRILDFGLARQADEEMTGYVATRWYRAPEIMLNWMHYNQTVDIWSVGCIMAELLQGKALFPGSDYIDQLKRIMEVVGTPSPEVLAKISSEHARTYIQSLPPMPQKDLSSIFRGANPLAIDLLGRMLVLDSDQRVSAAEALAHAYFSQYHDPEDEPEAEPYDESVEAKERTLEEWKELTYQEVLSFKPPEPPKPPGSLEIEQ

[9] = target: Mitogen-activated protein kinase 6 (Homo sapiens) (UniProt Q16659)
Chain of Mitogen-activated protein kinase 6 (Homo sapiens) (Q16659 whole entry): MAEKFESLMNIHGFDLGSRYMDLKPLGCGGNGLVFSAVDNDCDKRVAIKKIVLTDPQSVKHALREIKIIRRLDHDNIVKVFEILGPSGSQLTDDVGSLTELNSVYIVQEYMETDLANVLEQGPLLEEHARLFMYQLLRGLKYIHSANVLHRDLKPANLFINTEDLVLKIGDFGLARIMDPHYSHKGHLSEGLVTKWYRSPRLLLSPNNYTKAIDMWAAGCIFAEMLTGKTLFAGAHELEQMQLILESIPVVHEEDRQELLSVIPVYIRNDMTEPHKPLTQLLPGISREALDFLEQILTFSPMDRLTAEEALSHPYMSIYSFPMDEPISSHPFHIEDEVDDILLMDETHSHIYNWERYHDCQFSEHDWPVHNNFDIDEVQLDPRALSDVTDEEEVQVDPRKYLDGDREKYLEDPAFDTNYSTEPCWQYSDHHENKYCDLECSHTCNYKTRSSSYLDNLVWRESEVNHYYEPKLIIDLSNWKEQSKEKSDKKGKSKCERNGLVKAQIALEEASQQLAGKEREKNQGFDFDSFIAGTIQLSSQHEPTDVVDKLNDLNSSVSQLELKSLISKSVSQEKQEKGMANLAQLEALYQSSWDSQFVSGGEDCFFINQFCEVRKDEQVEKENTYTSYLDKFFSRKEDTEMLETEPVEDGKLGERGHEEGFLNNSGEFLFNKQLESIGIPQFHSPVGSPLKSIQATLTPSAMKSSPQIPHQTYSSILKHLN

[10] = target: Serine/threonine-protein kinase 26 (Homo sapiens) (UniProt Q9P289)
Chain of Serine/threonine-protein kinase 26 (Homo sapiens) (Q9P289 2-416 limits assumed): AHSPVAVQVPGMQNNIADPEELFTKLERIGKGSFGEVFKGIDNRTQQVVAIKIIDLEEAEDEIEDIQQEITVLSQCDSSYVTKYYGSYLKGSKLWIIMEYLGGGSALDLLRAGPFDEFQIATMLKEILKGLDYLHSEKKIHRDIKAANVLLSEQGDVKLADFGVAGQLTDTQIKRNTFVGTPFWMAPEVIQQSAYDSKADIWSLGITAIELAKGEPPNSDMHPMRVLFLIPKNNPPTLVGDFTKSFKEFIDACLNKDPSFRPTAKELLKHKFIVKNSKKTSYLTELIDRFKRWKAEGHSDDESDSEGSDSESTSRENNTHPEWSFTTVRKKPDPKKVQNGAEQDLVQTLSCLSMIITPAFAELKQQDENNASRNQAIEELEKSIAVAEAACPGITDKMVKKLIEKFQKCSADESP

[11] = target: Serine/threonine-protein kinase PAK 4 (Homo sapiens) (UniProt O96013)
Chain of Serine/threonine-protein kinase PAK 4 (Homo sapiens) (O96013 whole entry, looked up): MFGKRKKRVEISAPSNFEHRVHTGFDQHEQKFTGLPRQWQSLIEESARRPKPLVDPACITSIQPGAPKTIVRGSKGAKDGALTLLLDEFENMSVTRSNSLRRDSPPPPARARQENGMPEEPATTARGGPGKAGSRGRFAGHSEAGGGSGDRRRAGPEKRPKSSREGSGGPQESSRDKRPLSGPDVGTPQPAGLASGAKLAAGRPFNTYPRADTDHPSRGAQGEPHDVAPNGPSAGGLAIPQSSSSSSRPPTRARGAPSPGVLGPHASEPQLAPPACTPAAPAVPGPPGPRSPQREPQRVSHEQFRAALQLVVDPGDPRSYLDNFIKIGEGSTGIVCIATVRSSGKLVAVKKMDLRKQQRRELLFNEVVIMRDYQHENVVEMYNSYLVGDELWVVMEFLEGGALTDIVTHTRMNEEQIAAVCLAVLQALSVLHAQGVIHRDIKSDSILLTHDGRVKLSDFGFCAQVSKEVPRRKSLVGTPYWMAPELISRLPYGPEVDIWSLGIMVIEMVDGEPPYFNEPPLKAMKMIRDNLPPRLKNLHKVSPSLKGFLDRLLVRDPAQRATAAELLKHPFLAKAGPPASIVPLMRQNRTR

[12] = target: Serine/threonine-protein kinase pim-2 (Homo sapiens, UniProt Q9P1W9)
Chain of Serine/threonine-protein kinase pim-2 (Q9P1W9 whole entry, looked up): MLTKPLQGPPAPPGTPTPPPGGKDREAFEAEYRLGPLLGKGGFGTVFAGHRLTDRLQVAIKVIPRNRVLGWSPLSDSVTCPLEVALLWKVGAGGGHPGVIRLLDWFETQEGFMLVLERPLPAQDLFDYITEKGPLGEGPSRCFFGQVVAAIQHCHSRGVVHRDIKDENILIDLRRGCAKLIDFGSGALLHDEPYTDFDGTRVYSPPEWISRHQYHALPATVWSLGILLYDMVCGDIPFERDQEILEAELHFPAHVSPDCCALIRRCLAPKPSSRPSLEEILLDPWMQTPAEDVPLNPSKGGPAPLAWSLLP

[13] = target: T2, Serine/threonine-protein kinase PLK4 (Homo sapiens) (UniProt O00444)
T2 sequence (whole entry): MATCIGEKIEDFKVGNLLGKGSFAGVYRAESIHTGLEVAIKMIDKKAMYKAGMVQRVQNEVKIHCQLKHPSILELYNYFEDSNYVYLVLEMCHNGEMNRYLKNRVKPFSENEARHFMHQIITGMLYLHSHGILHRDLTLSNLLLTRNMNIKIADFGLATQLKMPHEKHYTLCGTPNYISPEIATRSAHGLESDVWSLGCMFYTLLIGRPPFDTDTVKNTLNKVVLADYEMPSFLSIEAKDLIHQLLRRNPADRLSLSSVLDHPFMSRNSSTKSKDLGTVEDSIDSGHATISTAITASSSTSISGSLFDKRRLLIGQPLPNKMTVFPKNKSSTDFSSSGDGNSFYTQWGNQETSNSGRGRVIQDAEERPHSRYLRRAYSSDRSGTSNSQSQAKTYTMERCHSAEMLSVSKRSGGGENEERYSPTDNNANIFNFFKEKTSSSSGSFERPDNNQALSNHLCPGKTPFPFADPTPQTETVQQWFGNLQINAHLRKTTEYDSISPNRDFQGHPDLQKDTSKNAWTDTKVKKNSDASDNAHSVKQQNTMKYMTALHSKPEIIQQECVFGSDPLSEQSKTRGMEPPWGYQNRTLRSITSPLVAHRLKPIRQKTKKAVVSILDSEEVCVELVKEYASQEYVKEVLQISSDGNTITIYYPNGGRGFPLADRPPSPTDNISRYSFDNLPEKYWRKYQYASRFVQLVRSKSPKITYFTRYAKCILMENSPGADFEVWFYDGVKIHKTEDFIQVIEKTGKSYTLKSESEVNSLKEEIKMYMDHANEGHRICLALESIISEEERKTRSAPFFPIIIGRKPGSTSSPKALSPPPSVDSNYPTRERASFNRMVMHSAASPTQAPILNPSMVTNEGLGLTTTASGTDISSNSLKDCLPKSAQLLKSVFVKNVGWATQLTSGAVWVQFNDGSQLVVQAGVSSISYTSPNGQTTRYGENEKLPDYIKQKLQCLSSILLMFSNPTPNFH

[14] = target: Ribosomal protein S6 kinase alpha-3 (Homo sapiens) (UniProt P51812)
Chain of Ribosomal protein S6 kinase alpha-3 (Homo sapiens) (P51812 whole entry): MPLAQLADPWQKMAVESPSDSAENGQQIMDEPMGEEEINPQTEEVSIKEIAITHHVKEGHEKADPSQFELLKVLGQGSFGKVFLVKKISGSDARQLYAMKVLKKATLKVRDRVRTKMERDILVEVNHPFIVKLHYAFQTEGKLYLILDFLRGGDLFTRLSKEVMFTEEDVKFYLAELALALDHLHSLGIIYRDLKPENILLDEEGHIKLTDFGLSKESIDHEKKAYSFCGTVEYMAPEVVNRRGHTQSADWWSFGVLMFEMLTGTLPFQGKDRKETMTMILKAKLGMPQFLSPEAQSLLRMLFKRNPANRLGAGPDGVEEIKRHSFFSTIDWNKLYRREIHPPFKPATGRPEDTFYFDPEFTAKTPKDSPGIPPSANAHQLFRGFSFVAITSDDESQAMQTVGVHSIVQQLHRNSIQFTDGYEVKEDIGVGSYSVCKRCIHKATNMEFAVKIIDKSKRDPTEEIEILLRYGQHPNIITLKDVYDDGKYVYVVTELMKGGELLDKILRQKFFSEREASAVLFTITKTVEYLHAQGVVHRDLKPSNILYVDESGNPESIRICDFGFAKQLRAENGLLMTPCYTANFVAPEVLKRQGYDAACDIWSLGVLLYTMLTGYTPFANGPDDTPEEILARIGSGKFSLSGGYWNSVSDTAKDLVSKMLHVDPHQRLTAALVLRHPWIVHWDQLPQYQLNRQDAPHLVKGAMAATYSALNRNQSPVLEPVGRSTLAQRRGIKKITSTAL

[15] = target: Serine/threonine-protein kinase 16 (Homo sapiens) (UniProt O75716)
[16] = target: Serine/threonine-protein kinase 38 (Homo sapiens) (UniProt Q15208)
[17] = target: Serine/threonine-protein kinase VRK2 (Homo sapiens) (UniProt Q86Y07)
Chain of Serine/threonine-protein kinase VRK2 (Homo sapiens) (Q86Y07 whole entry): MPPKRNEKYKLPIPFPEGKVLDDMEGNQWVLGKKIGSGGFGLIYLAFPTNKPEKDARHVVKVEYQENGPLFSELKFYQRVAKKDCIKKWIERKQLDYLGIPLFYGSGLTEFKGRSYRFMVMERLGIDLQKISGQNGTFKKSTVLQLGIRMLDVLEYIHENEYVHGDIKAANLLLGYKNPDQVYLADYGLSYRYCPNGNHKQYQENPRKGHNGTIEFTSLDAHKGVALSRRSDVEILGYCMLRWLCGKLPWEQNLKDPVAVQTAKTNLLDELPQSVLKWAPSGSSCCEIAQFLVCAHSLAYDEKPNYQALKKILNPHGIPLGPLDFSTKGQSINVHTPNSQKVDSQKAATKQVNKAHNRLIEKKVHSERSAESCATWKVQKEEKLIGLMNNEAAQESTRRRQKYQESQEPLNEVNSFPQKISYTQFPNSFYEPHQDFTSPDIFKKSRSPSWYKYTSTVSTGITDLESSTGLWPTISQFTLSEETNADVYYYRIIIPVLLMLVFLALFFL

[18] = target: T3, Serine/threonine-protein kinase VRK3 (Homo sapiens) (UniProt Q8IV63)
T3 sequence (whole entry): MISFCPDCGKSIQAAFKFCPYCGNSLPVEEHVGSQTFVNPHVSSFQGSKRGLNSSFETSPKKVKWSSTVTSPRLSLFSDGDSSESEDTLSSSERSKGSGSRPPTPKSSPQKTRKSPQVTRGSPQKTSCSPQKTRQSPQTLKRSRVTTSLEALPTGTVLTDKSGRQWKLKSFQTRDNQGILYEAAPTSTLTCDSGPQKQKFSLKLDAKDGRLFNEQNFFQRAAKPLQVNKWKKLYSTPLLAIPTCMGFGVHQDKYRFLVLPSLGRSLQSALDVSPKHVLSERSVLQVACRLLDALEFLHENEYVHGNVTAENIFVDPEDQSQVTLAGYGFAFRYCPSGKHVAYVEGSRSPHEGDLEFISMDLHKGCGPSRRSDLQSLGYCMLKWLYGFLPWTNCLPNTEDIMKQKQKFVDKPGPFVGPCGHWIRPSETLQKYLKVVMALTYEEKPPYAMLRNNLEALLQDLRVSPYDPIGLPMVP

| SMILES | ΔTm [1] [°C] | ΔTm [2] [°C] | ΔTm [3] [°C] | ΔTm [4] [°C] | ΔTm [5] [°C] | ΔTm [6] [°C] | ΔTm [7] [°C] | ΔTm [8] [°C] | ΔTm [9] [°C] | ΔTm [10] [°C] | ΔTm [11] [°C] | ΔTm [12] [°C] | ΔTm [13] [°C] | ΔTm [14] [°C] | ΔTm [15] [°C] | ΔTm [16] [°C] | ΔTm [17] [°C] | ΔTm [18] [°C] |
| --- | --- | --- | --- | --- | --- | --- | --- | --- | --- | --- | --- | --- | --- | --- | --- | --- | --- | --- |
| CN(C)CC1CCn2c(c(C3=C(c4c[nH]c5ccccc45)C(=O)NC3=O)c3ccccc32)C1 (stereo not drawn) | 1 | -0.2 | 0.8 | 0.5 | 2 | 0.3 | 0.8 | -0.3 | 0.6 | 0 | 1.5 | 1.7 | 0.1 | 7.4 | 1.3 | 0.3 | 0.7 | 0.6 |
| Nc1nc(Nc2ccc(S(N)(=O)=O)cc2)nn1C(=S)Nc1c(F)cccc1F | 1.6 | -0.2 | 4.6 | 4.3 | 11.5 | 14.7 | 5.3 | 1.9 | 2.1 | 11.1 | 6.3 | 0.6 | 13.1 | 9.6 | 7.8 | 6.4 | 2 | 0.9 |
| Nc1ncnc2c1c(I)cn2[C@@H]1O[C@H](CO)[C@@H](O)[C@H]1O | 0.4 | 2.5 | -0.2 | 0.2 | 9.5 | 7.3 | 2.7 | -0.4 | -0.1 | 1.4 | 1.1 | 1 | 2.9 | 1.7 | 3.9 | 1.7 | 0.1 | 0.1 |
| O=c1c(-c2ccc(F)cc2)c(-c2ccncc2)[nH]n1-c1ccc(Cl)cc1 | 0 | 0.4 | 0.6 | 0.4 | 1 | 0.3 | 0.5 | 7.1 | 0.7 | -0.5 | 0.7 | 0.2 | 1 | 1.2 | 0.1 | 0.5 | 0.7 | -1.1 |
| O=c1c(-c2ccc(O)cc2)coc2cc(O)cc(O)c12 | 1.2 | -0.8 | 0.1 | -0.1 | 1.1 | 1 | 1.6 | 0 | 1.7 | 1 | 0.8 | 3.1 | 0.4 | 0.2 | 4.3 | 0.6 | 0.1 | 1.2 |
| O=C1NC(=O)C(c2c[nH]c3ccccc23)=C1c1c[nH]c2ccccc12 | 1.2 | 2.8 | 1.2 | 0.6 | 4.1 | 2.5 | 0.7 | 0.5 | 0.5 | 0.9 | 1.8 | 4 | 4.2 | 3.6 | 3.5 | 0.5 | 1 | 1.2 |
| Ic1cccc(CSc2nnc(-c3ccncc3)o2)c1 | 0.1 | -0.5 | -0.2 | -0.7 | 1.7 | 1.5 | 0.4 | -0.4 | -0.2 | -0.5 | -0.1 | 0.1 | 0.1 | -0.6 | 0.2 | 0.8 | -0.3 | -0.1 |
| O=c1cc(-c2ccc(O)cc2)oc2cc(O)cc(O)c12 | 0.5 | 2.1 | 0.4 | 1.4 | 3.9 | 3.1 | 0.7 | 1.7 | 0.5 | 3.1 | 0.3 | 3.8 | 5.2 | 2.7 | 4.8 | 1.1 | 0.6 | 0.2 |
| OC[C@H]1O[C@@H](n2cnc3cc(Cl)c(Cl)cc32)[C@H](O)[C@@H]1O | -0.1 | 0.2 | -0.3 | -0.2 | 3.1 | 1.4 | 1 | 0 | -0.1 | -0.3 | -0.9 | 2.6 | 0.5 | 1.3 | 1.1 | 0.2 | 0 | -0.2 |
| CCOc1cc(/C=C(\C#N)C(N)=O)cc(CSc2ccccc2)c1O | -0.2 | 0.1 | 0 | -0.1 | 0 | 0.3 | 0.4 | -0.3 | 0.1 | -0.3 | -0.5 | 0.1 | 2.8 | 2.1 | 1 | 0.3 | 0.1 | -0.6 |
| Cn1cc(C2=C(c3cn(CCCN)c4ccccc34)C(=O)NC2=O)c2ccccc21 | 1.7 | 1.7 | 1.3 | 2.7 | 8.2 | 3.5 | 0.4 | 0.5 | 0.3 | 2.1 | 4.3 | 5.6 | 1.8 | 8.1 | 4.3 | 0.2 | 0.6 | 0.9 |
